Assay results reported in patent EP4682145A1, “BENZOHETEROCYCLIC COMPOUND, AND PREPARATION METHOD THEREFOR AND USE THEREOF” (Cascade Pharmaceuticals, Inc., priority 2023, dated 2024).

molecular target: T1, human FFAR1 (GPR40) (Homo sapiens, UniProt O14842); test: NFAT-RE-based reporter gene activity assay (Dual-Glo luciferase) for GPR40 agonistic activity in co-transfected HEK293T cells; format: cell-based; conditions: 4-hour treatment
T1 construct: Flag; expressed in transfected cells; host or cells: HEK293T
T1 sequence (O14842 whole entry): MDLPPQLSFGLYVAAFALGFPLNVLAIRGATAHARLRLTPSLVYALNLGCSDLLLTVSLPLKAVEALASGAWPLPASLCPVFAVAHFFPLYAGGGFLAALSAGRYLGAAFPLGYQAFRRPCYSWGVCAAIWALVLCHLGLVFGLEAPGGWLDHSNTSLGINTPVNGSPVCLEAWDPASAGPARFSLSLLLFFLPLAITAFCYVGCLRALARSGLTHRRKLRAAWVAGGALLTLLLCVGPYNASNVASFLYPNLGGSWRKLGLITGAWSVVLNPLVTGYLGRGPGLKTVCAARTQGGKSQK
From the text: The pcDNA3.0-flag-FFAR1 (GPR40) plasmid was constructed using conventional molecular cloning methods. The main steps were as follows: The full-length cDNA sequence of human FFAR1 (GPR40) (NM_005303.3) was inserted into the HindIII and XbaI restriction sites of the pcDNA3.0 vector via PCR technology, resulting in the pcDNA3.0-flag-FFAR1 (GPR40) plasmid; pGL4.30 [luc2P NFAT-RE] (# E8481) and pRL-TK (#E2241) plasmids were both purchased from Promega; the plasmids were transformed into DH5α E. coli using the CaCl2 method, further cultured and amplified, and then purified using a plasmid extraction kit (TIANGEN, # DP117) to obtain the corresponding plasmid DNA.
HEK293T cells were seeded in a 96-well plate at a density of 1 × 10^4/well one day prior to plasmid transfection. Cell transfection was performed according to the instructions of the transfection reagent FuGENE® HD (Promega, # E2311). The main steps were as follows: Taking one well as an example, plasmids pcDNA3.0-flag-FFAR1 (GPR40), pGL4.30 [luc2P NFAT-RE], and pRL-TK were added at ratios of 50 ng, 50 ng, and 5 ng, respectively, into 10 µL of Opti-MEM™ I medium (Gibco, #11058021) and mixed thoroughly; then, 0.2 µL of FuGENE® HD was added, mixed thoroughly, and allowed to stand at room temperature for 5 minutes; finally, this 10 µL mixture was added to the cell well containing 100 µL of culture medium. 24 hours after co-transfection, the compounds were serially diluted at half-logarithmic intervals with 1 µM as the highest concentration, resulting in 10 concentration gradients, which were added to the cell culture medium for a 4-hour treatment.
After 4 hours of compound treatment, the cells were assayed according to the instructions of the Dual-Glo® Luciferase Assay System (Promega, # E2940). The main steps were as follows: 50 µL of culture medium was aspirated from each well and discarded, followed by the addition of 50 µL of Dual-Glo® Luciferase Reagent, and the mixture was shaken at room temperature for 10 minutes. Then, 80 µL of the lysate reaction solution was transferred to a white opaque optiPlate-96 well plate, and the luminescence signal of Firefly luciferase (Firefly-Luc) was measured using an MD i3x multifunctional microplate reader. Subsequently, 40 µL of Dual-Glo® Stop & Glo® Reagent was added, and the mixture was shaken at room temperature for 10 minutes. Finally, the luminescence signal of Renilla luciferase (Renilla-Luc) was measured using the MD i3x multifunctional microplate reader. The ratio of Firefly-Luc/Renilla-Luc was used as the compound's agonistic activity toward GPR40, and normalization was performed using the ratio of the solvent DMSO group. A dose-response curve was fitted using a four-parameter model with GraphPad Prism 8.0 software to calculate the EC50 value.

Q: How did the EC50 turn out when `COc1cccc(N2CCC(c3oc4cc([C@@H](CC(=O)O)C5CC5)ccc4c3-c3csc(C(C)(C)C)n3)CC2)c1` [Compound 108] was run?
A: The EC50 was 10 to 100 nM.

Q: How did the EC50 turn out when `COc1cccc(N2CCC(c3oc4cc([C@@H](CC(=O)O)C5CC5)ccc4c3-c3nc(C(C)C)cs3)CC2)c1` [Compound 109] was run?
A: Its EC50 is 100 to 500 nM.

Q: With `COc1cccc(N2CCC(c3oc4cc([C@@H](CC(=O)O)C5CC5)ccc4c3-c3nc(C(C)(C)C)cs3)CC2)c1` [Compound 110] as the molecule, how does the EC50 read?
A: The EC50 was 10 to 100 nM.

Q: Which EC50 does the source give for `COc1cccc(N2CCC(c3oc4cc(C(CC(=O)O)C5CC5)ccc4c3-c3ncc(C(C)C)s3)CC2)c1` (stereo not shown) [Compound 111] here?
A: The EC50 was 10 to 100 nM.

Q: Which EC50 does the source give for `COc1cccc(N2CCC(c3oc4cc([C@@H](CC(=O)O)C5CC5)ccc4c3-c3ncc(C(C)C)s3)CC2)c1` [Compound 112] here?
A: Its EC50 is 10 to 100 nM.

Q: For `COc1cccc(N2CCC(c3oc4cc([C@@H](CC(=O)O)C5CC5)ccc4c3-c3ncc(C(C)(C)C)s3)CC2)c1` [Compound 113], which EC50 is on record?
A: Its EC50 is at most 10 nM.

Q: For `COc1cccc(N2CCC(c3oc4cc(C(CC(=O)O)C5CC5)ccc4c3-c3cc(C(C)(C)C)on3)CC2)c1` (stereo not shown) [Compound 114], which EC50 is on record?
A: The EC50 was 10 to 100 nM.

Q: Which EC50 does the source give for `COc1cccc(N2CCC(c3oc4cc(C(CC(=O)O)C5CC5)ccc4c3-c3cc(C(C)(C)C)no3)CC2)c1` (stereo not shown) [Compound 115] here?
A: Its EC50 is at most 10 nM.

Q: For `COc1cccc(N2CCC(c3oc4cc([C@@H](CC(=O)O)C5CC5)ccc4c3-c3cc(C(C)(C)C)no3)CC2)c1` [Compound 116], which EC50 is on record?
A: The EC50 was at most 10 nM.

Q: How did the EC50 turn out when `COc1cccc(N2CCC(c3oc4cc([C@@H](CC(=O)O)C5CC5)ccc4c3-c3nc(C(C)(C)C)co3)CC2)c1` [Compound 117] was run?
A: The EC50 was 10 to 100 nM.

Q: How did the EC50 turn out when `COc1cccc(N2CCC(c3oc4cc(C(CC(=O)O)C5CC5)ccc4c3-c3nnc(C(C)(C)C)s3)CC2)c1` (stereo not shown) [Compound 118] was run?
A: The EC50 was 10 to 100 nM.

Q: `COc1cccc(N2CCC(c3oc4cc(C(CC(=O)O)C5CC5)ccc4c3-c3cn(C)nn3)CC2)c1` (stereo not shown) [Compound 120] was tested. Which EC50 did it give?
A: Its EC50 is over 500 nM.

Q: `COc1cccc(N2CCC(c3oc4cc(C(CC(=O)O)C5CC5)ccc4c3-c3ncn(C)n3)CC2)c1` (stereo not shown) [Compound 121] was tested. Which EC50 did it give?
A: Its EC50 is over 500 nM.

Q: For `COc1cccc(N2CCC(c3oc4cc(C(CC(=O)O)C5CC5)ccc4c3-c3noc(C(C)(C)C)n3)CC2)c1` (stereo not shown) [Compound 122], which EC50 is on record?
A: The EC50 was 10 to 100 nM.

Q: With `COc1cccc(N2CCC(c3oc4cc(C(CC(=O)O)C5CC5)ccc4c3-c3nnc(C(C)C)o3)CC2)c1` (stereo not shown) [Compound 123] as the molecule, how does the EC50 read?
A: Its EC50 is 100 to 500 nM.

Q: For `COc1cccc(N2CCC(c3oc4cc(C(CC(=O)O)C5CC5)ccc4c3-c3nnc(C(C)(C)C)o3)CC2)c1` (stereo not shown) [Compound 124], which EC50 is on record?
A: Its EC50 is 10 to 100 nM.

Q: How did the EC50 turn out when `COc1cccc(N2CCC(c3oc4cc([C@@H](CC(=O)O)C5CC5)ccc4c3-c3nnc(C(C)(C)C)o3)CC2)c1` [Compound 125] was run?
A: The EC50 was 10 to 100 nM.

Q: `COc1cccc(N2CCC(c3oc4cc(C(CC(=O)O)C5CC5)ccc4c3-c3nnc(C(C)(C)C(F)(F)F)o3)CC2)c1` (stereo not shown) [Compound 126] was tested. Which EC50 did it give?
A: The EC50 was 10 to 100 nM.

Q: How did the EC50 turn out when `COc1cccc(N2CCC(c3oc4cc(C(CC(=O)O)C5CC5)ccc4c3-c3cnn(C(C)(C)C#N)c3)CC2)c1` (stereo not shown) [Compound 127] was run?
A: The EC50 was 100 to 500 nM.

Q: Which EC50 does the source give for `CCC(C)(C)c1nnc(-c2c(C3CCN(c4cccc(OC)c4)CC3)oc3cc(C(CC(=O)O)C4CC4)ccc23)o1` (stereo not shown) [Compound 128] here?
A: Its EC50 is 10 to 100 nM.

same assay, conditions: 4-hour treatment, class symbols

Q: For `COc1cccc(N2CCC(c3oc4cc([C@@H](CC(=O)O)C5CC5)ccc4c3-c3csc(C(C)(C)C)n3)CC2)c1` [Compound 108], which “Efficacy (%)” value is on record?
A: Its value is “††† (Efficacy (%) > 150)”.

Q: How did the “Efficacy (%)” value turn out when `COc1cccc(N2CCC(c3oc4cc([C@@H](CC(=O)O)C5CC5)ccc4c3-c3nc(C(C)C)cs3)CC2)c1` [Compound 109] was run?
A: Its value is “†† (150 ≥ Efficacy (%) > 100)”.

Q: `COc1cccc(N2CCC(c3oc4cc([C@@H](CC(=O)O)C5CC5)ccc4c3-c3nc(C(C)(C)C)cs3)CC2)c1` [Compound 110] was tested. Which “Efficacy (%)” value did it give?
A: The value was “†† (150 ≥ Efficacy (%) > 100)”.

Q: Which “Efficacy (%)” value does the source give for `COc1cccc(N2CCC(c3oc4cc(C(CC(=O)O)C5CC5)ccc4c3-c3ncc(C(C)C)s3)CC2)c1` (stereo not shown) [Compound 111] here?
A: Its value is “††† (Efficacy (%) > 150)”.

Q: With `COc1cccc(N2CCC(c3oc4cc([C@@H](CC(=O)O)C5CC5)ccc4c3-c3ncc(C(C)C)s3)CC2)c1` [Compound 112] as the molecule, how does the “Efficacy (%)” value read?
A: The value was “†† (150 ≥ Efficacy (%) > 100)”.

Q: Which “Efficacy (%)” value does the source give for `COc1cccc(N2CCC(c3oc4cc([C@@H](CC(=O)O)C5CC5)ccc4c3-c3ncc(C(C)(C)C)s3)CC2)c1` [Compound 113] here?
A: The value was “†† (150 ≥ Efficacy (%) > 100)”.

Q: With `COc1cccc(N2CCC(c3oc4cc(C(CC(=O)O)C5CC5)ccc4c3-c3cc(C(C)(C)C)on3)CC2)c1` (stereo not shown) [Compound 114] as the molecule, how does the “Efficacy (%)” value read?
A: Its value is “†† (150 ≥ Efficacy (%) > 100)”.

Q: With `COc1cccc(N2CCC(c3oc4cc(C(CC(=O)O)C5CC5)ccc4c3-c3cc(C(C)(C)C)no3)CC2)c1` (stereo not shown) [Compound 115] as the molecule, how does the “Efficacy (%)” value read?
A: The value was “†† (150 ≥ Efficacy (%) > 100)”.

Q: With `COc1cccc(N2CCC(c3oc4cc([C@@H](CC(=O)O)C5CC5)ccc4c3-c3cc(C(C)(C)C)no3)CC2)c1` [Compound 116] as the molecule, how does the “Efficacy (%)” value read?
A: Its value is “†† (150 ≥ Efficacy (%) > 100)”.

Q: Which “Efficacy (%)” value does the source give for `COc1cccc(N2CCC(c3oc4cc([C@@H](CC(=O)O)C5CC5)ccc4c3-c3nc(C(C)(C)C)co3)CC2)c1` [Compound 117] here?
A: The value was “†† (150 ≥ Efficacy (%) > 100)”.

Q: For `COc1cccc(N2CCC(c3oc4cc(C(CC(=O)O)C5CC5)ccc4c3-c3nnc(C(C)(C)C)s3)CC2)c1` (stereo not shown) [Compound 118], which “Efficacy (%)” value is on record?
A: Its value is “†† (150 ≥ Efficacy (%) > 100)”.

Q: How did the “Efficacy (%)” value turn out when `COc1cccc(N2CCC(c3oc4cc(C(CC(=O)O)C5CC5)ccc4c3-c3cn(C)nn3)CC2)c1` (stereo not shown) [Compound 120] was run?
A: Its value is “†† (150 ≥ Efficacy (%) > 100)”.

Q: Which “Efficacy (%)” value does the source give for `COc1cccc(N2CCC(c3oc4cc(C(CC(=O)O)C5CC5)ccc4c3-c3ncn(C)n3)CC2)c1` (stereo not shown) [Compound 121] here?
A: Its value is “†† (150 ≥ Efficacy (%) > 100)”.

Q: Which “Efficacy (%)” value does the source give for `COc1cccc(N2CCC(c3oc4cc(C(CC(=O)O)C5CC5)ccc4c3-c3noc(C(C)(C)C)n3)CC2)c1` (stereo not shown) [Compound 122] here?
A: The value was “†† (150 ≥ Efficacy (%) > 100)”.

Q: How did the “Efficacy (%)” value turn out when `COc1cccc(N2CCC(c3oc4cc(C(CC(=O)O)C5CC5)ccc4c3-c3nnc(C(C)C)o3)CC2)c1` (stereo not shown) [Compound 123] was run?
A: Its value is “†† (150 ≥ Efficacy (%) > 100)”.

Q: How did the “Efficacy (%)” value turn out when `COc1cccc(N2CCC(c3oc4cc(C(CC(=O)O)C5CC5)ccc4c3-c3nnc(C(C)(C)C)o3)CC2)c1` (stereo not shown) [Compound 124] was run?
A: The value was “†† (150 ≥ Efficacy (%) > 100)”.

Q: With `COc1cccc(N2CCC(c3oc4cc([C@@H](CC(=O)O)C5CC5)ccc4c3-c3nnc(C(C)(C)C)o3)CC2)c1` [Compound 125] as the molecule, how does the “Efficacy (%)” value read?
A: The value was “†† (150 ≥ Efficacy (%) > 100)”.

Q: `COc1cccc(N2CCC(c3oc4cc(C(CC(=O)O)C5CC5)ccc4c3-c3nnc(C(C)(C)C(F)(F)F)o3)CC2)c1` (stereo not shown) [Compound 126] was tested. Which “Efficacy (%)” value did it give?
A: The value was “†† (150 ≥ Efficacy (%) > 100)”.

Q: `COc1cccc(N2CCC(c3oc4cc(C(CC(=O)O)C5CC5)ccc4c3-c3cnn(C(C)(C)C#N)c3)CC2)c1` (stereo not shown) [Compound 127] was tested. Which “Efficacy (%)” value did it give?
A: Its value is “††† (Efficacy (%) > 150)”.

Q: For `CCC(C)(C)c1nnc(-c2c(C3CCN(c4cccc(OC)c4)CC3)oc3cc(C(CC(=O)O)C4CC4)ccc23)o1` (stereo not shown) [Compound 128], which “Efficacy (%)” value is on record?
A: Its value is “†† (150 ≥ Efficacy (%) > 100)”.
